# Results reported in US11785950B2, “Use of dried chicory root to protect poultry and livestock against ectoparasites or as insect repellant” (Cosucra Groupe Warcoing S.A., priority 2017, dated 2023).
# Columns and labels:
# [1] = system: scabies (dominantly caused by the mite Chorioptes bovis); assay: Comparative trial vs Amitraz: clinical index of scabies lesions; format: in vivo; parameters: key to clinical index, active lesions (4): % area with type 4 lesions = squares type 4/350*100; conditions: for clinical index, active lesions (4): week not given
# Text: The whole trial lasted for 15 weeks and was subdivided in […]: a pre-treatment period of 9 weeks, a treatment period of 3 weeks, and a 3 week post-treatment period.
# The trial started with pre-treatment period of 9 weeks during which the animals were housed in a straw-bedded free stall and received no preventive treatment against scabies and lice. At the end of the pre-treatment period, the degree of scabies lesions (clinical index) and counts of mites and lice in skin-scraping samples were evaluated.
# (§1) Twenty Belgian Blue cattle (6 heifers and 14 cows) were used in this trial. Cattle with mild or severe visual signs of scabies infection were selected, tied, shaved, scored for scabies lesions (clinical index) and skin scraping samples were taken for counts of mites and lice. Next, the animals were divided into 2 groups, a control group and a treatment group, based on the results of the clinical index and mite—lice counts at the end of the pre-treatment phase. At the start of the treatment period, animals were housed in a tie-stable, shaved and tied to prevent physical contact with other animals.
# (§2) Control group: The animals in the positive control group were treated according to the standard ILVO (Flecmish Institute for Agriculture and Fishery) scabies prevention protocol which consisted of treatment with Amitraz (Tactic) and removal of the crusts, followed by a second treatment with interval of 10 days between both treatments. After the second treatment crusts were not removed.
# Treatment group: The animals in the treatment group were not treated with Amitraz (Tactic), but were fed the indicative daily dose of 200 g of dried chicory root composition per animal per day. Said amount corresponds to roughly 1 to 2% of dried chicory root on the total feed. Dried chicory root composition was provided mixed through the daily dose of soybean meal and concentrate. The nutritional treatment with dried chicory root composition lasted for 3 consecutive weeks during which the animals receive their daily dose of dried chicory root composition. […]
# In the last week of the pre-treatment period (week 0) and every following week till the end of the post-treatment period, the clinical index was determined as a measure for scabies lesions. Per animal, the number, size and type of scabies lesions was determined using a scoring form.
# A distinction was made between dried, healing lesions (type 3) and wet, active lesions (type 4). The clinical index was calculated based on the total number of lesions using the formula: Area with lesions=total squares/350*100.
# In addition, an alternative clinical index was calculated based on the number of active lesions: Area with lesions type 4=squares type 4/350*100. […]
# mites (Chorioptes bovis) = assay: Comparative trial vs Amitraz: mite count in skin scraping samples; format: in vivo; conditions: week 4; 10 animals per group
# Text: as §1, §2
# Treatment group: The animals in the treatment group were not treated with Amitraz (Tactic), but were fed the indicative daily dose of 200 g of dried chicory root composition per animal per day. […]
# Using microscopy, the numbers of mites and lice in each sample were counted and the types of mites and lice were identified by an expert at the Laboratory of Parasitology, Ghent University, Belgium. […]
smiles,measurement,setting,value
"Cc1ccc(/N=C/N(C)/C=N/c2ccc(C)cc2C)c(C)c1 [Tactic, Amitraz]","clinical index, active lesions (4)",[1]; 3rd week pair of columns,0.0
same,"clinical index, active lesions (4)",[1]; 4th week pair of columns,0.0
same,"clinical index, active lesions (4)",[1]; 5th week pair of columns,0.0
same,"clinical index of Tactic group higher than that of dried chicory root group, 95% confidence maximum",[1]; equivalence test,≤ 15%
same,WBT samples positive for Chorioptes bovis,mites (Chorioptes bovis),3 samples
same,hock samples positive for Chorioptes bovis,mites (Chorioptes bovis),one
